Laboratory results: PMC10332405 (European journal of medicinal chemistry, 2023)

What was measured:
[1] = biological target: HIV-1 protease I50V/A71V (Human immunodeficiency virus type 1 group M subtype B, UniProt P12497, A559V/I538V/Q495K); test: biochemical
[2] = biological target: HIV-1 protease I84V (Human immunodeficiency virus type 1 group M subtype B, UniProt P12497, I572V/Q495K); test: biochemical
[3] = test system: human T-cell lymphotropic virus type 1 (HTLV-1) protease; settings: cited from earlier work
[4] = test system: HIV-1-SLK; test: Antiviral assay with resistant HIV-1 variant SLK; assay type: cell-based; settings: read-out: Antiviral EC50, HIV-1-SLK; multi-PI resistant recombinant virus

## CCOP(=O)(COc1ccc(C[C@H](NC(=O)O[C@H]2CO[C@H]3OCC[C@H]32)[C@H](O)CN(CC(C)C)S(=O)(=O)c2ccc(OC)cc2)cc1)OCC [GS-8374]
[1]
  Ki: < 0.005 nM
[2]
  Ki: < 0.005 nM

## CCOP(=O)(COc1ccc(C[C@H](NC(=O)O[C@H]2CO[C@H]3OCC[C@H]32)[C@H](O)CN(CC(CC)CC)S(=O)(=O)c2ccc(N)cc2)cc1)OCC [PU6, (3R,3aS,6aR)-Hexahydrofuro[2,3-b]furan-3-yl ((2S,3R)-4-((4-amino-N-(2-ethylbutyl)phenyl)sulfonamido)-1-(4-((diethoxyphosphoryl)methoxy)phenyl)-3-hydroxybutan-2-yl)carbamate]
[3]
  Inhibition of HTLV-1 protease: potent inhibitor

## CCOP(=O)(COc1ccc(C[C@H](NC(=O)O[C@H]2CO[C@H]3OCC[C@H]32)[C@H](O)CN(CC(CC)CC)S(=O)(=O)c2ccc(OC)cc2)cc1)OCC [PU7, (3R,3aS,6aR)-Hexahydrofuro[2,3-b]furan-3-yl ((2S,3R)-1-(4-((diethoxyphosphoryl)methoxy)phenyl)-4-((N-(2-ethylbutyl)-4-methoxyphenyl)sulfonamido)-3-hydroxybutan-2-yl)carbamate]
[4]
  EC50: < 10 nM

## CCOP(=O)(COc1ccc(C[C@H](NC(=O)O[C@H]2CO[C@H]3OCC[C@H]32)[C@H](O)CN(CC(CC)CC)S(=O)(=O)c2ccc3c(c2)OCO3)cc1)OCC [PU9, (3R,3aS,6aR)-Hexahydrofuro[2,3-b]furan-3-yl ((2S,3R)-1-(4-((diethoxyphosphoryl)methoxy)phenyl)-4-(N-(2-ethylbutyl)benzo[d][1,3]dioxole-5-sulfonamido)-3-hydroxybutan-2-yl)carbamate]
[4]
  EC50: < 10 nM
